Tests used:
[1] = tested on: C57Bl/6 mice; assay: Acute effect of MEAI on food and water intake and metabolic parameters (Promethion); type: in vivo; settings: lean male mice, vs vehicle
Procedure: Male 6-week-old C57Bl/6 mice (Harlan, Israel) were maintained in standard conditions under a 12 h light/dark cycle and fed ad libitum. A total of 32 animals were divided into four experimental groups (N = 8 mice per group) receiving single doses of 40, 60, or 100 mg/kg of MEAI or vehicle (sterile water), which was administered via oral gavage 2 h prior to the dark phase. The animals were monitored for 48 h postdose for drug tolerability, food and water intakes, and activity and metabolic parameters. At the end of the experiment, the animals were euthanized, and tissues (brain, liver, fat, and kidney) and blood were collected and stored in a frozen state for future analyses.
The metabolic profiles and food and water intakes of the mice were assessed using the Promethion High-Definition Behavioral Phenotyping System (Sable Instruments, Inc., Las Vegas, Nevada, USA). MetaScreen software version 2.2.18.0 was used for data acquisition and instrument control. Raw data were processed using ExpeData version 1.8.4 with an analysis script detailing all aspects of the data transformation. Mice with free access to food and water, housed at temperatures of (22–23 °C), were subjected to a standard 12 h light/12 h dark cycle, which consisted of a 48 h acclimation period followed by 24 h of sampling after dosing. Respiratory gases were measured using the GA-3 gas analyzer (Sable Systems, Inc., Las Vegas, Nevada, USA) employing a pull-mode negative-pressure system. Airflow was measured and controlled by an FR-8 instrument (Sable Systems, Inc., Las Vegas, Nevada, USA) at a flow rate of 2000 mL/min. Water vapor was continuously measured, and its dilution effect on O2 and CO2 was mathematically compensated. Respiratory exchange rate (RER) was calculated as the ratio of CO2 produced (VCO2) to O2 consumed (VO2) using eq 1): [drawing 1] 1
Total energy expenditure (TEE) was calculated using VO2 and RER, according to eq 2: [drawing 2] 2
Fat oxidation (FO) and carbohydrate oxidation (CHO) were calculated using VO2 and VCO2 based on eqs 3 and 4, respectively: [drawing 3] 3 [drawing 4] 4
Energy balance and energy flux were derived from eqs 5 and 6: [drawing 5] 5 [drawing 6] 6

[2] = tested on: DIO C57BL/6 mice; assay: Blood biochemistry in DIO mice; type: in vivo; settings: 40 mg/kg/day
Procedure: Male C57BL/6 mice were used to establish DIO by feeding them a high-fat diet (HFD; 60% cal/L fat, 20% cal/L protein, and 20% cal/L carbohydrates; Research Diet, D12492) for 18 weeks. After this period, mice were treated with either vehicle (sterile water, N = 8) or MEAI (N = 11) daily for 28 days by gavage at a dose of 40 mg/kg/day. Age-matched control mice (N = 10) on a standard diet (STD; 14% kcal fat, 24% kcal protein, 62% kcal carbohydrates; NIH-31 rodent diet) received vehicle daily. The body weight of all mice was monitored daily, and total body fat and lean mass were determined by EchoMRI-100H (Echo Medical Systems LLC, Houston, Texas, USA). On day 29, at the end of the experimental period, mice were euthanized by a cervical dislocation under anesthesia. The kidneys, brain, liver, and fat pads were removed and weighed, and samples were either snap-frozen or fixed in buffered 4% formalin. Trunk blood was collected to determine the biochemical parameters.
Serum levels of alanine aminotransferase (ALT), aspartate aminotransferase (AST), alkaline phosphatase (ALP), cholesterol, triglycerides, high-density lipoprotein (HDL), and low-density lipoprotein (LDL) were quantified post-termination using the Cobas C-111 chemistry analyzer (Roche, Switzerland). Fasting blood glucose was measured using the Contour glucometer (Bayer, Pittsburgh, Pennsylvania, USA), while serum insulin was determined using an Ultra-Sensitive Mouse Insulin ELISA kit (Cat# 90080, Crystal Chem, Inc., Elk Grove Village, Illinois, USA). Serum-free fatty acid content was determined using a Free Fatty Acid Assay Kit (Cat# ab65341, Abcam, Cambridge, UK).

[3] = target: 5-HT1A receptor; set-up: method as in PMID 30904940; settings: cited from earlier work
[4] = tested on: serotonin transporter (SERT); set-up: method as in PMID 30904940; settings: cited from earlier work

**Q.** Which “hourly average energy expenditure (TEE/h)” value ([1]; single oral dose 40, 60 or 100 mg/kg, across 24 h) does the source give for `COc1ccc2c(c1)CC(N)C2.Cl` (stereo not shown) [MEAI, 2,3-Dihydro-5-methoxy-1H-inden-2-amine hydrochloride] here?
**A.** significant dose-dependent increase

**Q.** And the “feeding patterns (food intake)” value ([1]; single oral dose 40, 60 or 100 mg/kg, dark and light phases)?
**A.** did not reach statistical significance

**Q.** What about the water consumption ([1]; single oral dose 40, 60 or 100 mg/kg) of the same molecule?
**A.** no notable changes

**Q.** What about the “respiratory exchange ratio (RER)” value ([1]; single oral dose 60 and 100 mg/kg, light phase) of the same molecule?
**A.** markedly increased

**Q.** And the “carbohydrate oxidation (CHO) rate” value ([1]; single oral dose, higher doses)?
**A.** elevations

**Q.** And the “fat oxidation (FO) rate” value ([1]; single oral dose, higher doses)?
**A.** elevations

**Q.** What about the “total daily TEE” value ([1]; single oral dose, particularly at 60 mg/kg) of the same molecule?
**A.** significant elevation

**Q.** And the “carbon dioxide production (VCO2)” value ([1]; single oral dose)?
**A.** increases

**Q.** What about the energy balance ([1]; single oral dose) of the same molecule?
**A.** did not lead to immediate changes

**Q.** And the “oxygen consumption (VO2)” value ([1]; single oral dose)?
**A.** increases

**Q.** And the insulin levels [2]?
**A.** reduced

**Q.** What about the circulating leptin levels ([2]; 28 days, vs HFD vehicle) of the same molecule?
**A.** effectively countered the HFD-induced elevation

**Q.** What about the serum serotonin levels ([2]; 28 days, vs HFD vehicle) of the same molecule?
**A.** did not significantly alter

**Q.** And the “circulating levels of adiponectin” value ([2]; across all groups)?
**A.** remained unchanged

**Q.** What about the circulating triglyceride levels ([2]; across all groups) of the same molecule?
**A.** remained largely unchanged

**Q.** And the HDL levels ([2]; serum)?
**A.** without a significant change

**Q.** And the HDL-to-LDL ratio ([2]; serum)?
**A.** positive shift

**Q.** What about the free fatty acids ([2]; serum) of the same molecule?
**A.** trend toward reduced

**Q.** What about the total cholesterol levels ([2]; serum, did not reach statistical significance) of the same molecule?
**A.** downward trend

**Q.** What about the LDL ([2]; serum, vs HFD vehicle) of the same molecule?
**A.** significant decrease

**Q.** What about the ALP levels ([2]; serum, vs HFD-vehicle) of the same molecule?
**A.** significantly reduced

**Q.** What about the ALT levels ([2]; serum, vs HFD-vehicle) of the same molecule?
**A.** did not significantly alter

**Q.** And the AST levels ([2]; serum, vs HFD-vehicle)?
**A.** did not significantly alter

**Q.** What about the Ki [3] of the same molecule?
**A.** 2500 nM

**Q.** And the interaction with transporter [4]?
**A.** interacts

— PMC11320730, “5-Methoxy-2-aminoindane Reverses Diet-Induced Obesity and Improves Metabolic Parameters in Mice: A Potential New Class of Antiobesity Therapeutics” (ACS Pharmacology & Translational Science, 2024)
